{
  "source": "patent US20170298051A1",
  "about": "“ACTIVATOR OF ADIPONECTIN RECEPTOR” (THE UNIVERSITY OF TOKYO, priority 2013, published 2017)",
  "key": {"mice fed with a HF diet": {"test_system": "mice fed with a HF diet", "experiment": "Treadmill exercise endurance in mice fed a HF diet", "format": "in vivo", "method": "The treadmill exercise test regimen was 15 m/min for 20 min. Exercise endurance was assessed by dividing 20 min by the number of times a mouse was unable to avoid electrical shocks."}, "AdipoR1": {"test_system": "AdipoR1", "experiment": "Measurement of AMPK phosphorylation ability (Assay 2), C2C12 cells with unrelated or AdipoR1 siRNA", "format": "cell-based, Mouse", "method": "C2C12 cells (ATCC; CRL-1772, medium; DMEM, 10% Fetal Bovine Serum (FBS)) were cultured in a 12- or 24-well plate until they reached 100% confluency (37° C., 5% CO2). The medium was changed to DMEM, 2.5% Horse Serum (HS) and differentiation was started. The medium (DMEM, 2.5% HS) was replaced two days after the start of differentiation. The medium (DMEM, 2.5% HS) was further replaced two days after that.\nOn the next day following the replacement of the medium, first, 1 μL of Lipofectamine RNAiMAX and 50 μL of OPTI-MEM were mixed, and then 5 μM siRNA (sense siRNA sequence: […]tt (SEQ ID NO: 1)) and 50 μL of OPTI-MEM were mixed and the resultants were left to stand at room temperature for 5 minutes. And then, the 1 μL Lipofectamine RNAiMAX/50 μL OPTI-MEM and the 5 μM siRNA/50 μL OPTI-MEM were mixed, and the resultant was left to stand at room temperature for 10 minutes, which was added to the cells.\nAfter 5 minutes, the medium (DMEM, 2.5 HS) was replaced, and after starvation on the next day, a test compound listed in Table 12 was added thereto. After 10 minutes, the medium was discarded and the plate was frozen with liquid nitrogen.\nThe respective amounts of pAMPK and AMPK were determined in the same way as in the above Assay 1."}},
  "data": [
    {"smiles": "O=C(COc1ccc(C(=O)c2ccccc2)cc1)NC1CCN(Cc2ccccc2)CC1", "note": "[Compound 73, 2-(4-benzoyl-phenoxy)-N-(1-benzylpiperidin-4-yl)acetamide]", "values": [
      {"measurement": "exercise endurance", "setting": "mice fed with a HF diet; Adipor1/r2 double-knockout mice fed with a HF diet", "result": "but not in Adipor1/r2 double-knockout mice"},
      {"measurement": "exercise endurance", "setting": "mice fed with a HF diet; WT mice fed with a HF diet", "result": "significantly increased exercise endurance"},
      {"measurement": "pAMPK/AMPK (ratio) siRNA, AdipoR1 siRNA", "setting": "AdipoR1; AdipoR1 siRNA", "result": 2.68, "unit": "ratio"},
      {"measurement": "pAMPK/AMPK (ratio) siRNA, unrelated siRNA", "setting": "AdipoR1; unrelated siRNA", "result": 4.75, "unit": "ratio"}
    ]}
  ]
}
